Assay results from ChEMBL document CHEMBL1150298, “Sulfadiazine/hydroxypropyl-beta-cyclodextrin host-guest system: Characterization, phase-solubility and molecular modeling” (Bioorg Med Chem, 2008).
Converted amounts (≈) assume the structure as drawn.

Assay: Aqueous solubility of compound at pH 7 by spectrophotometry
Conditions: aqueous solution

solubility: 40 µg/mL (≈ 160 µM)
Compound: Nc1ccc(S(=O)(=O)Nc2ncccn2)cc1 [SULFADIAZINE]
